Patent US12398120B2, “Substituted hydantoinamides as ADAMTS7 antagonists” (BAYER AKTIENGESELLSCHAFT, priority 2019, dated 2025)

Target: ADAMTS4 (Homo sapiens (Human), UniProt O75173)
Experiment: Selectivity assay for ADAMTS-7 modulators: ADAMTS4 (FRET substrate)
Type: biochemical
Settings: ADAMTS4 (R&D 4307-AD) 50 nM, substrate Dabcyl-EEVKAKVQPY-Glu(Edans)-NH2 1 μM, 120 min, 32° C.
In short: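 Human ADAMTS4 with compound in DMSO, or DMSO control; reaction started by adding FRET substrate in reaction buffer. Fluorescence increase measured at substrate-specific wavelengths. IC50 derived from % inhibition of enzyme activity versus compound concentration.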

Chain of ADAMTS4 (O75173 213-685): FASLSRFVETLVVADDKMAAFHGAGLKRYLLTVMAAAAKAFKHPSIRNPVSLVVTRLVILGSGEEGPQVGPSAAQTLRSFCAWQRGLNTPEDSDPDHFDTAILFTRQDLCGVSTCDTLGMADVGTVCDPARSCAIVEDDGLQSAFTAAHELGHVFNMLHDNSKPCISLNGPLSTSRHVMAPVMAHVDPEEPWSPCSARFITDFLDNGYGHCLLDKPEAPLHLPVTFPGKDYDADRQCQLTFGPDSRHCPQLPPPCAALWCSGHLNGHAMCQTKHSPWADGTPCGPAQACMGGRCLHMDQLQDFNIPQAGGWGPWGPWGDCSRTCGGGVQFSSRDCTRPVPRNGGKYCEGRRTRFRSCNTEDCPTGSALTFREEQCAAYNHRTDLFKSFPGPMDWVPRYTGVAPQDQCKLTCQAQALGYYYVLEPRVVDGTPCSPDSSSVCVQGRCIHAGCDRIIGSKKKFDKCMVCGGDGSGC

SMILES	IC50 [µM]
Cc1ccc(C(=O)NCC2(c3nccn3C)NC(=O)NC2=O)c(-c2ccc(C(F)(F)F)cc2)c1C (single isomer, unassigned; ent-5) [Example 287, Ent-5,6-Dimethyl-N-{[4-(1-Methyl-1H-Imidazol-2-Yl)-2,5-Dioxoimidazolidin-4-Yl]Methyl}-4′-(Trifluoromethyl)[Biphenyl]-2-Carboxamide]	0.16
O=C1NC(=O)C(CNC(=O)c2ccccc2-c2ccc(C(F)(F)F)cc2)(c2ccccc2)N1 (racemic) [Example 12, Rac-N-[(2,5-Dioxo-4-Phenylimidazolidin-4-Yl)Methyl]-4′-(Trifluoromethyl)[Biphenyl]-2-Carboxamide]	> 50
Cn1nccc1C1(CNC(=O)c2c(Cl)cccc2-c2ccc(Cl)cc2)NC(=O)NC1=O (single isomer, unassigned; ent-3) [Example 189, Ent-3,4′-Dichloro-N-{[4-(1-Methyl-1H-Pyrazol-5-Yl)-2,5-Dioxoimidazolidin-4-Yl]Methyl}[Biphenyl]-2-Carboxamide]	3.65
Cc1ccc(C(=O)NC[C@@]2(C3CC3)NC(=O)NC2=O)c(-c2ccc(C(F)(F)F)cc2)c1 [Example 218, N-{[(4R)-4-Cyclopropyl-2,5-Dioxoimidazolidin-4-Yl]Methyl}-5-Methyl-4′-(Trifluoromethyl)[Biphenyl]-2-Carboxamide]	4
O=C1NC(=O)[C@](CNC(=O)c2c(F)cccc2-c2ccc(C(F)(F)F)cc2)(C2CC2)N1 [Example 230, N-{[(4R)-4-Cyclopropyl-2,5-Dioxoimidazolidin-4-Yl]Methyl}-3-Fluoro-4′-(Trifluoromethyl)[1,1′-Biphenyl]-2-Carboxamide]	33
Cc1nscc1C1(CNC(=O)c2ccc(F)c(F)c2-c2ccc(C(F)(F)F)cc2)NC(=O)NC1=O (racemic) [Example 306, Rac-5,6-Difluoro-N-{[4-(3-Methyl-1,2-Thiazol-4-Yl)-2,5-Dioxoimidazolidin-4-Yl]Methyl}-4′-(Trifluoromethyl)[Biphenyl]-2-Carboxamide]	16
CC(C)C1(CNC(=O)c2ccc(F)cc2-c2ccc(C(F)(F)F)cc2)NC(=O)NC1=O (single isomer, unassigned; ent-5) [Example 207, Ent-5-Fluoro-N-[(4-Isopropyl-2,5-Dioxoimidazolidin-4-Yl)Methyl]-4′-(Trifluoromethyl)[Biphenyl]-2-Carboxamide]	> 50
O=C1NC(=O)C(CNC(=O)c2ccccc2-c2ccc(C(F)(F)F)nc2)(C2(Cl)CC2)N1 (racemic) [Example 281, Rac-N-{[4-(1-Chlorocyclopropyl)-2,5-Dioxoimidazolidin-4-Yl]Methyl}-2-[6-(Trifluoromethyl)Pyridin-3-Yl]Benzamide]	26
O=C1NC(=O)[C@](CNC(=O)c2ccccc2-c2ccc(C3(C(F)(F)F)CC3)cc2)(C2CC2)N1 [Example 115, N-{[(4R)-4-Cyclopropyl-2,5-Dioxoimidazolidin-4-Yl]Methyl}-4′-[1-(Trifluoromethyl)Cyclopropyl][Biphenyl]-2-Carboxamide]	7.8
Cc1ncsc1C1(CNC(=O)c2ccccc2-c2ccc(C(F)(F)F)cc2)NC(=O)NC1=O (racemic) [Example 5, Rac-N-{[4-(4-Methyl-1,3-Thiazol-5-Yl)-2,5-Dioxoimidazolidin-4-Yl]Methyl}-4′-(Trifluoromethyl)[Biphenyl]-2-Carboxamide]	12
Cn1nccc1C1(CNC(=O)c2cccc(F)c2-c2ccc(C(F)(F)F)cc2)NC(=O)NC1=O (single isomer, unassigned; ent-6) [Example 195, Ent-6-Fluoro-N-{[4-(1-Methyl-1H-Pyrazol-5-Yl)-2,5-Dioxoimidazolidin-4-Yl]Methyl}-4′-(Trifluoromethyl)[Biphenyl]-2-Carboxamide]	4.63
Cc1scnc1C1(CNC(=O)c2cc(Cl)ccc2-c2ccc(C(F)(F)F)cc2)NC(=O)NC1=O (single isomer, unassigned; ent-4) [Example 18, Ent-4-Chloro-N-{[4-(5-Methyl-1,3-Thiazol-4-Yl)-2,5-Dioxoimidazolidin-4-Yl]Methyl}-4′-(Trifluoromethyl)[Biphenyl]-2-Carboxamide]	41
Cc1scnc1C1(CNC(=O)c2cc(F)c(F)cc2-c2ccc(C(F)(F)F)cc2)NC(=O)NC1=O (single isomer, unassigned; ent-4) [Example 17, Ent-4,5-Difluoro-N-{[4-(5-Methyl-1,3-Thiazol-4-Yl)-2,5-Dioxoimidazolidin-4-Yl]Methyl}-4′-(Trifluoromethyl)[Biphenyl]-2-Carboxamide]	7.1
Cc1cc(C2(CNC(=O)c3ccccc3-c3ccc(C(F)(F)F)cc3)NC(=O)NC2=O)n(C)n1 (stereo not drawn) [Example 302, Ent-N-{[4-(1,3-Dimethyl-1H-Pyrazol-5-Yl)-2,5-Dioxoimidazolidin-4-Yl]Methyl}-4′-(Trifluoromethyl)[Biphenyl]-2-Carboxamide]	7.6
Cc1ccc(-c2ccccc2C(=O)NCC2(C(C)C)NC(=O)NC2=O)cc1 (stereo not drawn) [Example 205, Ent-N-[(4-Isopropyl-2,5-Dioxoimidazolidin-4-Yl)Methyl]-4′-Methyl[Biphenyl]-2-Carboxamide]	12
Cc1scnc1C1(CNC(=O)c2ccc(F)cc2-c2ccc(Cl)cc2)NC(=O)NC1=O (single isomer, unassigned; ent-4) [Example 170, Ent-4′-Chloro-5-Fluoro-N-{[4-(5-Methyl-1,3-Thiazol-4-Yl)-2,5-Dioxoimidazolidin-4-Yl]Methyl}[Biphenyl]-2-Carboxamide]	4.9
CC(C)CCC1(CNC(=O)c2ccccc2-c2ccc(C(F)(F)F)cc2)NC(=O)NC1=O (racemic) [Example 58, Rac-N-{[4-(3-Methylbutyl)-2,5-Dioxoimidazolidin-4-Yl]Methyl}-4′-(Trifluoromethyl)[Biphenyl]-2-Carboxamide]	> 50
Cc1ccc(C(=O)NCC2(c3nccn3C)NC(=O)NC2=O)c(-c2ccc(C(F)(F)F)cc2)c1 (single isomer, unassigned; ent-5) [Example 151, Ent-5-Methyl-N-{[4-(1-Methyl-1H-Imidazol-2-Yl)-2,5-Dioxoimidazolidin-4-Yl]Methyl}-4′-(Trifluoromethyl)[Biphenyl]-2-Carboxamide]	1.02
O=C1NC(=O)C(CNC(=O)c2ccc(F)cc2-c2ccc(C(F)(F)F)cc2)(C2(F)CC2)N1 (racemic) [Example 252, Rac-5-Fluoro-N-{[4-(1-Fluorocyclopropyl)-2,5-Dioxoimidazolidin-4-Yl]Methyl}-4′-(Trifluoromethyl)[Biphenyl]-2-Carboxamide]	41
O=C1NC(=O)C(CNC(=O)c2ccccc2-c2ccc(C(F)(F)F)cc2)(c2ncsc2C(F)(F)F)N1 (racemic) [Example 263, Rac-N-({2,5-Dioxo-4-[5-(Trifluoromethyl)-1,3-Thiazol-4-Yl]Imidazolidin-4-Yl}Methyl)-4′-(Trifluoromethyl)[Biphenyl]-2-Carboxamide]	32
Cc1nc(C)c(C2(CNC(=O)c3ccccc3-c3ccc(C(F)(F)F)cc3)NC(=O)NC2=O)s1 (racemic) [Example 15, Rac-N-{[4-(2,4-Dimethyl-1,3-Thiazol-5-Yl)-2,5-Dioxoimidazolidin-4-Yl]Methyl}-4′-(Trifluoromethyl)[Biphenyl]-2-Carboxamide]	7.75
Cc1ccc(-c2ccccc2C(=O)NCC2(c3nccn3C)NC(=O)NC2=O)cc1 (single isomer, unassigned; ent-4) [Example 146, Ent-4′-Methyl-N-{[4-(1-Methyl-1H-Imidazol-2-Yl)-2,5-Dioxoimidazolidin-4-Yl]Methyl}[Biphenyl]-2-Carboxamide]	1.9
Cc1scnc1C1(CNC(=O)c2ccccc2-c2ccc(Cl)cc2)NC(=O)NC1=O (racemic) [Example 171, Rac-4′-Chloro-N-{[4-(5-Methyl-1,3-Thiazol-4-Yl)-2,5-Dioxoimidazolidin-4-Yl]Methyl}[Biphenyl]-2-Carboxamide]	6.9
Cc1ncsc1C1(CNC(=O)c2ccccc2-c2ccc(C(F)(F)F)nc2)NC(=O)NC1=O (stereo not drawn) [Example 37, Ent-N-{[4-(4-Methyl-1,3-Thiazol-5-Yl)-2,5-Dioxoimidazolidin-4-Yl]Methyl}-2-[6-(Trifluoromethyl)Pyridin-3-Yl]Benzamide]	8.7
Cc1scnc1C1(CNC(=O)c2ccccc2-c2ccc(C(F)(F)F)cc2)NC(=O)NC1=O (single isomer, unassigned) [Example 3, Ent-N-{[4-(5-Methyl-1,3-Thiazol-4-Yl)-2,5-Dioxoimidazolidin-4-Yl]Methyl}-4′-(Trifluoromethyl)[Biphenyl]-2-Carboxamide]	4.8
Cn1cncc1C1(CNC(=O)c2ccccc2-c2ccc(C(F)(F)F)cc2)NC(=O)NC1=O (racemic) [Example 283, Rac-N-{[4-(1-Methyl-1H-Imidazol-5-Yl)-2,5-Dioxoimidazolidin-4-Yl]Methyl}-4′-(Trifluoromethyl)[Biphenyl]-2-Carboxamide]	6.3
Cc1ccc(C(=O)NC[C@@]2(C3CC3)NC(=O)NC2=O)c(-c2ccc(C3CC3(F)F)cc2)c1 (single isomer, unassigned) [Example 137]	13
Cn1ccnc1C1(CNC(=O)c2ccccc2-c2ccc(Cl)cc2)NC(=O)NC1=O (single isomer, unassigned; ent-4) [Example 155, Ent-4′-Chloro-N-{[4-(1-Methyl-1H-Imidazol-2-Yl)-2,5-Dioxoimidazolidin-4-Yl]Methyl}[Biphenyl]-2-Carboxamide]	5.9

Same assay, conditions: ADAMTS4 (R&D 4307-AD) 50 nM, substrate Dabcyl-[…]-Glu(Edans)-NH2 1 μM, 120 min, 32° C.

SMILES	IC50 [µM]
O=C1NC(=O)C(CNC(=O)c2ccc(F)cc2-c2ccc(Cl)cc2)(C2(F)CC2)N1 (single isomer, unassigned; ent-4) [Example 301, Ent-4′-Chloro-5-Fluoro-N-{[4-(1-Fluorocyclopropyl)-2,5-Dioxoimidazolidin-4-Yl]Methyl}[Biphenyl]-2-Carboxamide]	15
